# Experimental data taken from patent US6605426B1, “Compounds, methods of screening, and in vitro and in vivo uses involving anti-apoptotic genes and anti-apoptotic gene products” (priority 1998, dated 2003).
# Residues, ends and D or L forms follow the SMILES beside them. *: point of attachment. Cbz = O=C(OCc1ccccc1)*; CH2F = FC*
# Columns and labels:
# Assay type in all cases: cell-based, human
# [1] = system: MRC-5 cells; conditions: for cell death of MRC-5 cells: within the first 24 h of exposure, anti-Fas and TNF-α only in the presence of CHX, phase microscope
# Experimental: (§1) Tumor necrosis factor receptor 1 (TNF-R1)-mediated apoptosis was induced by exposure of HeLa and MRC-5 cells to tumor necrosis factor-α (TNF-α) (Sigma, 10-60 ng/mL)+CHX (10-30 μg/mL). Fas-mediated apoptosis was induced by exposure of cells to an anti-Fas antibody (Coulter, 7C11 antibody at 0.2-4 μg/mL)+CHX (10-30 μg/mL). The degree of cell death was determined by the visual scoring of surviving cells, in representative fields, under a phase microscope.
# The time-course of apoptosis was also analyzed by examining the expression of phosphatidylserine on the cell surface, as detected with FITC-labeled Annexin V, and by a dye-exclusion test using propidium iodide. These two tests were performed with an ApoAlert Annexin V Apoptosis kit (Clontech) in accordance with the manufacturer's recommendations, on a flow cytometer (FACScan, Becton-Dickinson).
# These experiments were performed on MRC-5, a normal human fibroblast cell line which can be productively infected by HCMV in cell culture. The present inventors first examined whether infection of cells with HCMV alters the cell's sensitivity to Fas- or TNF-R1-mediated apoptosis.
# [2] = system: HCMV-infected MRC-5 cells; experiment: Apoptosis resistance of HCMV-infected MRC-5 cells in presence of viral DNA polymerase inhibitors; conditions: concentration sufficient to inhibit viral replication; challenge two days later with anti-Fas antibody+CHX or TNF-α+CHX
# Text: To discriminate between these two mechanisms, MRC-5 cells were infected with HCMV in the presence (or absence) of inhibitors of viral DNA polymerase, such as phosphonacetic acid or gancyclovir (Huang, 1975; Crumpacker, 1996) which prevent the expression of the late genes of HCMV in the host cell (Mocarski, 1996).
# MRC-5 cells uninfected (FIG. 3A) or infected with HCMV (FIG. 3B) were either untreated, or treated with either phosphonacetic acid or gancyclovir at a concentration sufficient to inhibit viral replication (Huang, 1975; Crumpacker, 1996). Two days later these cells were challenged with either anti-Fas antibody+CHX or TNF-α+CHX (FIGS. 3A and 3B). Although nearly all non-infected MRC-5 cells underwent apoptosis, irrespective of the presence or absence of phosphonacetic acid or gancyclovir, a major fraction of cells exposed to HCMV survived the challenge with the apoptotic stimuli in the absence of the viral DNA polymerase inhibitors. Further, a somewhat smaller but still large fraction of cells survived in the presence of the inhibitors. Thus, the insensitivity of HCMV-infected cells to apoptosis was not abolished by these drugs.
# [3] = system: HeLa cells; experiment: Transient transfection apoptosis assay in HeLa cells (anti-Fas antibody+CHX or TNF-α+CHX); conditions: for protection of HeLa cells at very low plasmid concentration: 0.1% to 1% of the total DNA transfected, mixed with control vector, anti-Fas antibody+CHX; for β-gal levels after anti-Fas antibody+CHX treatment: plasmids diluted several hundred fold, β-gal marker plasmid
# Experimental: as §1, with “microscope. A similar degree of cell death occurred in fibroblasts when examined 5 to 28 h after the start of exposure, or a similar degree of cell death occurred in HeLa cells when examined 9-28 h after the start of exposure. Further, a similar degree of cell death for a given reagent was produced when any concentration within the range indicated above was used.” for “microscope.”
# The degree of cell death in cells transfected with an indicator plasmid expressing E. coli β-galactosidase was determined by either a β-galactosidase ELISA (Boehringer Mannheim), in accordance with the manufacturer's recommendations, or by visually scoring, under a microscope, positive blue cells, expressing β-galactosidase, after staining them with X-gal.
# HeLa cells were transiently co-transfected with an expression plasmid vector, pME18S, carrying a polynucleotide sequence encoding IE1 or IE2 (FIG. 5, “IE1” and “IE2,” respectively), and a vector carrying the β-galactosidase gene (pCMVβ, Clontech). As a positive control, HeLa cells were transiently co-transfected with pCMVβ and a vector carrying a polynucleotide sequence encoding an anti-apoptotic polypeptide, such as the adenovirus E1B 19K or baculovirus p35.
# Expression of IE1 (approx. 72 kDa) and IE2 (approx. 86 kDa) in the transfected HeLa cells was confirmed by Western blot analysis, by immunofluorescence visually examined under a fluorescence microscope, and by transactivation activity which led to an elevation of the vector-CMV-promoter-driven β-galactosidase expression which was increased 2- to 5-fold, as measured by a β-galactosidase ELISA (data not shown). Apoptosis was induced by incubating the transfected cells for 24 h with either TNF-α+CHX, or anti-Fas antibody+CHX. The surviving cells were stained with X-gal, a chromogenic substrate of β-galactosidase, and then the blue-stained cells were scored (FIG. 5).
# To identify HCMV genes that can suppress apoptosis induced by Fas-ligation, the present inventors established a transient transfection assay in HeLa cells. The HeLa cells can be transfected at much higher efficiency than MRC-5 cells and are similar in their sensitivity towards anti-Fas antibody and TNF-α treatment. Enhanced survival of HeLa cells following anti-Fas antibody+CHX treatment was detected by elevated β-galactosidase (β-gal) levels produced by a transfected β-gal marker plasmid.
# The deletion mutants were transiently expressed in HeLa cells, cultured in DMEM supplemented with 10% fetal bovine serum, and assayed for their ability to block Fas- or TNF-R1-mediated apoptosis. Transfections and apoptosis assays were performed as previously described (Goldmacher et al., 1999). Briefly, cells were transiently transfected with the expression vectors (purified with a Qiagen plasmid purification kit) using SuperFect transfection reagent (Qiagen) in accordance with the manufacturer's protocol. After 24 hours, cells were exposed to anti-Fas 7C11 antibody (Coulter, 0.5 μg/ml)+cyclohexamide (Sigma, 10 μg/ml) for 24 hours.
# A genomic DNA library was cloned into pZeoSV2(+) plasmid (Invitrogen). Ten cosmids, pCM1007, pCM1015, pCM1017, pCM1029, pCM1035, pCM1039, pCM1040, pCM1052, pCM1058, and pCM1072, covering the AD169 genome (Fleckenstein et al., 1982, which is incorporated herein by reference), and pON2601 Toledo cosmid (Cha et al., 1996, which is incorporated herein by reference) containing unique HCMV sequences, were mixed in equal amounts and partially digested with Sau3AI (New England Biolabs, Beverly, Mass.). […]
# [4] = system: Fas-mediated apoptotic signaling in HeLa cells; experiment: Western blot of Fas-mediated apoptotic signaling events in HeLa clones
# Experimental: Cells were trypsinized, washed in Tris buffered saline, resuspended in a lysis buffer (150 mM NaCl, 5 mM EDTA, 50 mM Tris.HCl pH 8.0, 1% Triton X-100), freshly supplemented with phenylmethylsulfonyl fluoride (0.1 mM), leupeptin ([…]) and pepstatin (1 μg/mL), incubated on ice for 30 minutes, and centrifuged at 16,000 g for 15 minutes, at 4° C. Cytochrome c and procaspase 9 were detected in S-1 00 fractions of cells (Li et al., 1997, which is incorporated herein by reference).
# The intracellular polypeptides were detected by Western blot analysis. Samples containing protein were electrophoretically resolved under reduced conditions, on Laemmli SDS-PAGE (Novex), after equal amounts of protein were loaded per well of the gel, detected using a standard Western blot protocol and a luminol-based ECL Western Blotting system (Amersham). The following antibodies were used in the Western blot analysis: anti-human Bid C-20 (Santa Cruz Biotechnology), 5F7 anti-human caspase 8 (Upstate Biotechnology), C210 anti-PARP (Biomol), 7H8.2C12 anti-cytochrome c (Pharmigen), B40 anti-human caspase 9 (Pharmigen), FITC-anti-mouse IgG (Sigma), HRP-anti-mouse IgG-F, (Pierce), HRP-anti-mouse IgG2b (Boehringer Mannheim), HRP-anti-rabbit IgG, and HRP-anti-mouse Ig (Amersham).
# The impact of pUL37S on biochemical events involved in Fas-mediated apoptosis was examined by comparing control HeLa/pcDNA3 cells, which are sensitive to anti-Fas antibody plus CHX, to HeLa clones expressing either pUL37S or cellular Bcl-xL, both of which are resistant to Fas-mediated apoptosis. Ligation of Fas triggers the recruitment and activation of caspase 8 through the adapter molecule FADD (Ashkenazi et al., 1998). This process was not impaired by pUL37S since pro-caspase 8 was processed in pUL37S-expressing cells similar to its processing in either Bcl-xL-expressing cells, or control cells within 4 h of the exposure to anti-Fas antibody plus CHX, but not CHX alone (FIG. 16A). Fas-signaling is connected to mitochondrial events in apoptosis through Bid, a pro-apoptotic BH3 polypeptide that is proteolyzed by caspase 8 and subsequently translocates to mitochondria where it triggers cytochrome c release (Li et al., 1998; Lu et al., 1998).
molecule,measurement,setting,value
"C[C@@H]1C[C@@H]([C@H](O)CC2CC(=O)NC(=O)C2)C(=O)[C@@H](C)C1 [CHX, Cycloheximide]",cell death of MRC-5 cells,[1],did not kill cells
COC(=O)C[C@H](NC(=O)[C@H](C)NC(=O)[C@@H](NC(=O)OCc1ccccc1)C(C)C)C(=O)CF [Z-VADfmk] (Cbz-Val-Ala-Asp(OMe)-CH2F),effect on Fas- and TNF-R1-mediated MRC-5 cell death,[1]; caspase inhibitor added with anti-Fas antibody or TNF-α +CHX,prevented
Nc1nc(O)c2ncn(COC(CO)CO)c2n1 [gancyclovir],effect on insensitivity of HCMV-infected cells to apoptosis,[2],not abolished
O=C(O)CP(=O)(O)O [phosphonacetic acid],effect on insensitivity of HCMV-infected cells to apoptosis,[2],not abolished
Bcl-2: human anti-apoptotic gene product,protection of HeLa cells at very low plasmid concentration,[3],detectable protection
Bcl-xL: human cellular anti-apoptotic polypeptide,protection of HeLa cells at very low plasmid concentration,[3],detectable protection
same,β-gal levels after anti-Fas antibody+CHX treatment,[3],enhanced β-gal levels
same,cleavage of PARP,[4]; 4 h anti-Fas antibody plus CHX,inhibited
same,cytochrome c release,[4]; 4 h anti-Fas antibody plus CHX,not observed
same,processing of procaspase 9,[4]; 4 h anti-Fas antibody plus CHX,inhibited
same,processing of pro-caspase 8,[4]; within 4 h of anti-Fas antibody plus CHX,processed
TNF-α,cell death of MRC-5 cells,[1],died
"p35: baculovirus anti-apoptotic polypeptide, positive control (protein, UniProt P08160 1-299, looked up) Early 35 kDa protein: MCVIFPVEIDVSQTIIRDCQVDKQTRELVYINKIMNTQLTKPVLMMFNISGPIRSVTRKNNNLRDRIKSKVDEQFDQLERDYSDQMDGFHDSIKYFKDEHYSVSCQNGSVLKSKFAKILKSHDYTDKKSIEAYEKYCLPKLVDERNDYYVAVCVLKPGFENGSNQVLSFEYNPIGNKVIVPFAHEINDTGLYEYDVVAYVDSVQFDGEQFEEFVQSLILPSSFKNSEKVLYYNEASKNKSMIYKALEFTTESSWGKSEKYNWKIFCNGFIYDKKSKVLYVKLHNVTSALNKNVILNTIK",protection of HeLa cells at very low plasmid concentration,[3],detectable protection
same,survival of transfected cells after apoptosis induction,"[3]; HeLa cells, 24 h with either TNF-α+CHX or anti-Fas antibody+CHX, X-gal stained cells scored",survived
same,β-gal levels after anti-Fas antibody+CHX treatment,[3],enhanced β-gal levels
